Legend:
[1] = Solid stability test of crystal forms (high temperature, high humidity, light radiation, accelerated conditions; appearance, content, impurities, crystal form by XRPD); format: physicochemical; settings: for change of crystal form (XRPD detection): after the solid stability test conditions; for XPRD: crystal form found
From the text: High Performance Liquid Chromatograph (HPLC) The analytic method is as follows: [table] [table] […] The sample was placed under high temperature, high humidity and acceleration conditions. The bottle was sealed with an aluminum foil, and some small holes were pierced on the aluminum foil to ensure that the sample could fully contact with the ambient air. The sample placed under light radiation was placed upright at room temperature and open to the air. The sample was exposed to a light source, and radiated with sufficient energy prior to taking samples for detection. Samples were taken at various time points for analysis, and the detection results were compared with the initial detection results obtained at Day 0. The investigation items include appearance, content and impurities. […] The sample was placed under high temperature, high humidity and acceleration conditions. The bottle was sealed with an aluminum foil, and some small holes were pierced on the aluminum foil to ensure that the sample could fully contact with the ambient air. The sample placed under light radiation was placed upright at room temperature and open to the air. The sample was exposed to a light source, and radiated with sufficient energy prior to taking samples for detection. Samples were taken at various time points for analysis, and the detection results were compared with the initial detection results obtained at Day 0. The investigation items include appearance, content and impurities. […] Samples were taken at various time points, and the test results were compared with the initial test results obtained at Day 0. […] The investigation items include appearance, impurities, and crystal forms.

[2] = test system: Influenza virus A/Weiss/43 (H1N1) strain; assay: Influenza virus cytopathy (CPE) experiment; format: cell-based
[3] = test system: Influenza A virus H1N1 (H1N1 A/WSN/33 virus); assay: Influenza A virus H1N1 mouse infection model (in vivo drug efficacy); settings: H1N1 A/WSN/33 infected BALB/c mice, 10 mg/kg oral twice a day Day 1 to Day 7, first dose 36 hr after infection
[4] = Acceleration test (40° C./relative humidity 75%, open), Day 5
[5] = Acceleration test (40° C./relative humidity 75%, open), Day 10
[6] = High humidity (room temperature/relative humidity 92.5%, open), Day 5
[7] = High humidity (room temperature/relative humidity 92.5%, open), Day 10
[8] = High temperature (60° C., open), Day 5
[9] = High temperature (60° C., open), Day 10
[10] = Light radiation (total illumination 1.2 × 10^6 Lux · hr), Day 5
[11] = Light radiation (total illumination 1.2 × 10^6 Lux · hr), Day 10
[12] = high temperature, high humidity and accelerated experiments
[13] = Acceleration test (40° C./relative humidity 75%, open), Day 12
[14] = High humidity (room temperature/relative humidity 92.5%, open), Day 12
[15] = High temperature (60° C., open), Day 12
[16] = Light radiation (total illumination 1.2 × 10^6 Lux · hr), Day 12
[17] = high temperature, high humidity, light radiation and accelerated experiments
[18] = Acceleration test (40° C./relative humidity 75%, open), Day 30
[19] = High humidity (room temperature/relative humidity 92.5%, open), Day 30
[20] = High temperature (60° C., open), Day 30

With `O=C(O)[C@H]1C2CCC(CC2)[C@@H]1Nc1nc(-c2n[nH]c3ncc(F)cc23)nc(C2CC2)c1F` (single isomer, unassigned) [crystal form A] the Appearance [1, 4] was “Off-white solid”, the Appearance [1, 5] was “Off-white solid” and the “Content (%)” value [1, 5] was 98.36%. For the same compound, the “Total Impurities (%)” value [1, 5] was 1.64%, the Appearance ([1]; Day 0 (initial)) was “Off-white solid” and the “Content (%)” value ([1]; Day 0 (initial)) was 98.51%. For the same compound, the “Total Impurities (%)” value ([1]; Day 0 (initial)) was 1.49%, the Appearance [1, 6] was “Off-white solid” and the Appearance [1, 7] was “Off-white solid”. The “Content (%)” value [1, 7] was 98.25%, the “Total Impurities (%)” value [1, 7] was 1.75% and the Appearance [1, 8] was “Off-white solid”. The Appearance [1, 9] was “Off-white solid”, the “Content (%)” value [1, 9] was 98.25% and the “Total Impurities (%)” value [1, 9] was 1.75%. The Appearance [1, 10] was “Off-white solid”, the Appearance [1, 11] was “Off-white solid” and the “Content (%)” value [1, 11] was 96.89%. The “Total Impurities (%)” value [1, 11] was 3.11%, the “change of crystal form (XRPD detection)” value [1] was “does not change” and the XPRD [1, 5] was “Crystal form A”. The XPRD ([1]; Day 0 (initial)) was “Crystal form A”, the XPRD [1, 7] was “Crystal form A” and the XPRD [1, 9] was “Crystal form A”. For the same compound, the XPRD [1, 11] was “Crystal form A” and the “change in total impurity content” value [1, 12] was “relatively small change”.

For `O=C(O)[C@H]1C2CCC(CC2)[C@@H]1Nc1nc(-c2n[nH]c3ncc(F)cc23)nc(C2CC2)c1F` (single isomer, unassigned) [crystal form B], the Appearance ([1]; Day 0 (initial)) was “Off-white”, the “Content (%)” value ([1]; Day 0 (initial)) was 98.89% and the “Total Impurities (%)” value ([1]; Day 0 (initial)) was 1.11%. The Appearance [1, 6] was “Off-white”, the “Content (%)” value [1, 6] was 98.92% and the “Total Impurities (%)” value [1, 6] was 1.08%. For the same compound, the Appearance [1, 7] was “Off-white”, the “Content (%)” value [1, 7] was 98.90% and the “Total Impurities (%)” value [1, 7] was 1.10%. The Appearance [1, 8] was “Off-white”, the “Content (%)” value [1, 8] was 98.91% and the “Total Impurities (%)” value [1, 8] was 1.09%. For the same compound, the Appearance [1, 9] was “Off-white”, the “Content (%)” value [1, 9] was 98.89% and the “Total Impurities (%)” value [1, 9] was 1.11%. The Appearance [1, 10] was “Off-white”, the Appearance [1, 11] was “Off-white” and the “Content (%)” value [1, 11] was 98.03%. The “Total Impurities (%)” value [1, 11] was 1.97%, the “change in total impurity” value ([1]; accelerated experiments) was “relatively small change” and the “change of crystal form (XRPD detection)” value [1] was “does not change”. For the same compound, the XPRD ([1]; Day 0 (initial)) was “Crystal form B”, the XPRD [1, 7] was “Crystal form B” and the XPRD [1, 9] was “Crystal form B”. For the same compound, the XPRD [1, 11] was “Crystal form B” and the “change in total impurity content” value ([1]; high temperature, high humidity) was “almost no change”.

In the case of `O=C(O)[C@H]1C2CCC(CC2)[C@@H]1Nc1nc(-c2n[nH]c3ncc(F)cc23)nc(C2CC2)c1F` [Compound 1], the EC50 ([2]; 120 h, MDCK cells, influenza virus A/Weiss/43 (H1N1), 5 days, CCK8 cell viability) is reported as 0.013 nM, the “effect in the experiment of inhibiting influenza virus replication at a cell level” value ([2]; result in words) is reported as “positive effect” and the “Rate of Weight Loss (Day 9)” value ([3]; Day 9) is reported as 4.8%. For the same compound, the “Survival Rate (%)” value ([3]; observed to Day 14) was 100%.

For `O=C(O)[C@H]1C2CCC(CC2)[C@@H]1Nc1nc(-c2n[nH]c3ncc(F)cc23)nc(C2CC2)c1F` [crystal form D], the Appearance [1, 4] was “Off-white solid”, the Appearance [1, 13] was “Off-white solid” and the “Total Impurities (%)” value [1, 13] was 3.5%. The Appearance ([1]; Day 0 (initial)) was “Off-white solid”, the “Total Impurities (%)” value ([1]; Day 0 (initial)) was 3.3% and the Appearance [1, 6] was “Off-white solid”. For the same compound, the Appearance [1, 14] was “Off-white solid”, the “Total Impurities (%)” value [1, 14] was 3.4% and the Appearance [1, 8] was “Off-white solid”. For the same compound, the Appearance [1, 15] was “Off-white solid”, the “Total Impurities (%)” value [1, 15] was 3.3% and the Appearance [1, 10] was “Off-white solid”. The Appearance [1, 16] was “Off-white solid”, the “Total Impurities (%)” value [1, 16] was 3.4% and the “change of crystal form (XRPD detection)” value [1] was “does not change”. The XPRD [1, 13] was “Crystal form D”, the XPRD ([1]; Day 0 (initial)) was “Crystal form D” and the XPRD [1, 14] was “Crystal form D”. The XPRD [1, 15] was “Crystal form D”, the XPRD [1, 16] was “Crystal form D” and the “change in total impurity content” value [1, 17] was “almost no change”.

In the case of `O=C(O)[C@H]1C2CCC(CC2)[C@@H]1Nc1nc(-c2n[nH]c3ncc(F)cc23)nc(C2CC2)c1F` [crystal form F], the Appearance [1, 4] is reported as “Off-white solid”, the Appearance [1, 13] is reported as “Off-white solid” and the “Total Impurities (%)” value [1, 13] is reported as 1.9%. The Appearance ([1]; Day 0 (initial)) was “Off-white solid”, the “Total Impurities (%)” value ([1]; Day 0 (initial)) was 1.7% and the Appearance [1, 6] was “Off-white solid”. For the same compound, the Appearance [1, 14] was “Off-white solid”, the “Total Impurities (%)” value [1, 14] was 1.9% and the Appearance [1, 8] was “Off-white solid”. For the same compound, the Appearance [1, 15] was “Off-white solid”, the “Total Impurities (%)” value [1, 15] was 1.9% and the Appearance [1, 10] was “Off-white solid”. For the same compound, the Appearance [1, 16] was “Off-white solid”, the “Total Impurities (%)” value [1, 16] was 1.8% and the “change of crystal form (XRPD detection)” value [1] was “does not change”. For the same compound, the XPRD [1, 13] was “Crystal form F”, the XPRD ([1]; Day 0 (initial)) was “Crystal form F” and the XPRD [1, 14] was “Crystal form F”. For the same compound, the XPRD [1, 15] was “Crystal form F”, the XPRD [1, 16] was “Crystal form F” and the “change in total impurity content” value [1, 12] was “almost no change”.

For `O=C(O)[C@H]1C2CCC(CC2)[C@@H]1Nc1nc(-c2n[nH]c3ncc(F)cc23)nc(C2CC2)c1F` [crystal form G], the Appearance [1, 4] was “Off-white solid”, the Appearance [1, 18] was “Off-white solid” and the “Total Impurities (%)” value [1, 18] was 0.35%. For the same compound, the Appearance ([1]; Day 0 (initial)) was “Off-white solid”, the “Total Impurities (%)” value ([1]; Day 0 (initial)) was 0.35% and the Appearance [1, 6] was “Off-white solid”. The Appearance [1, 19] was “Off-white solid”, the “Total Impurities (%)” value [1, 19] was 0.33% and the Appearance [1, 8] was “Off-white solid”. For the same compound, the Appearance [1, 20] was “Off-white solid”, the “Total Impurities (%)” value [1, 20] was 0.42% and the Appearance [1, 10] was “Off-white solid”. The Appearance [1, 16] was “Yellowish solid”, the “Total Impurities (%)” value [1, 16] was 0.54% and the “change of crystal form (XRPD detection)” value [1] was “does not change”. The XPRD [1, 18] was “Crystal form G”, the XPRD ([1]; Day 0 (initial)) was “Crystal form G” and the XPRD [1, 19] was “Crystal form G”. The XPRD [1, 20] was “Crystal form G”, the XPRD [1, 16] was “Crystal form G” and the “change in total impurity content” value ([1]; high humidity and accelerated experiments) was “almost no change”. For the same compound, the “change in total impurity content” value ([1]; high temperature) was “relatively small change”.

With `O=C(O)[C@H]1C2CCC(CC2)[C@@H]1Nc1nc(-c2n[nH]c3ncc(F)cc23)nc(C2CC2)c1F` [crystal form H] the Appearance [1, 4] was “Off-white solid”, the Appearance [1, 18] was “Off-white solid” and the “Total Impurities (%)” value [1, 18] was 2.0%. For the same compound, the Appearance ([1]; Day 0 (initial)) was “Off-white solid”, the “Total Impurities (%)” value ([1]; Day 0 (initial)) was 1.8% and the Appearance [1, 6] was “Off-white solid”. The Appearance [1, 19] was “Off-white solid”, the “Total Impurities (%)” value [1, 19] was 1.9% and the Appearance [1, 8] was “Off-white solid”. For the same compound, the Appearance [1, 20] was “Off-white solid”, the “Total Impurities (%)” value [1, 20] was 2.0% and the Appearance [1, 10] was “Off-white solid”. For the same compound, the Appearance [1, 16] was “Yellowish solid”, the “Total Impurities (%)” value [1, 16] was 1.9% and the “change of crystal form (XRPD detection)” value [1] was “does not change”. The XPRD [1, 18] was “Crystal form H”, the XPRD ([1]; Day 0 (initial)) was “Crystal form H” and the XPRD [1, 19] was “Crystal form H”. The XPRD [1, 20] was “Crystal form H”, the XPRD [1, 16] was “Crystal form H” and the “change in total impurity content” value [1, 17] was “almost no change”.
